Measurements from publication PMC10531311, “Anti-Inflammatory Activities of 8-Benzylaminoxanthines Showing High Adenosine A2A and Dual A1/A2A Receptor Affinity” (International Journal of Molecular Sciences, 2023).
Like-named read-outs stand apart in the source and are kept apart here.

Assays:
[1] = target: T1, human adenosine A3R (Homo sapiens, UniProt P0DMS8); parameters: method as in PMID 32629282; settings: cited from earlier work
T1 construct: expressed in transfected cells; host or cells: CHO cells
T1 sequence (P0DMS8 1-318): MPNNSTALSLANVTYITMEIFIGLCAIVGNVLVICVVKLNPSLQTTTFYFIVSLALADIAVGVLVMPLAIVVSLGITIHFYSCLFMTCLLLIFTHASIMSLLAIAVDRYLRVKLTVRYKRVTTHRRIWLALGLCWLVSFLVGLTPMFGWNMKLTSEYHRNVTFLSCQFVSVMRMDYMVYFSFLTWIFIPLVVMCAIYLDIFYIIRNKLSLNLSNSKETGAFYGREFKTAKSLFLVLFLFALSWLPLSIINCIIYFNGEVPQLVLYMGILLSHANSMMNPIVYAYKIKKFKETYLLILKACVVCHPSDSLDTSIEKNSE

[2] = target: T2, human adenosine A2AR (Homo sapiens, UniProt P29274); settings: cited from earlier work
T2 construct: expressed in transfected cells; host or cells: CHO cells

[3] = target: other adenosine receptors; settings: cited from earlier work
[4] = target: T3, human adenosine A1R (Homo sapiens, UniProt P30542); settings: cited from earlier work; for Ki: human
T3 construct: expressed in transfected cells; host or cells: CHO cells
T3 sequence (P30542 1-326): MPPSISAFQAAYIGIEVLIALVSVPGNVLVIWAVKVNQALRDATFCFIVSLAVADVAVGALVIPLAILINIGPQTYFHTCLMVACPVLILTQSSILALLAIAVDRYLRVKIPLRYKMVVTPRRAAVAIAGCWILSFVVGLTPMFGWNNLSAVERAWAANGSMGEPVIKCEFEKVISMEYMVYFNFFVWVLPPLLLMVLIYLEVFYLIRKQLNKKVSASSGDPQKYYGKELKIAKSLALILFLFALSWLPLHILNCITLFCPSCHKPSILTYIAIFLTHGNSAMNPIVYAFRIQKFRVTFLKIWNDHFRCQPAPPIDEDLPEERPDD

[5] = target: T4, human adenosine A2BR (Homo sapiens, UniProt P29275); parameters: method as in PMID 32629282; settings: cited from earlier work
T4 construct: expressed in transfected cells; host or cells: CHO cells
T4 sequence (P29275 1-332): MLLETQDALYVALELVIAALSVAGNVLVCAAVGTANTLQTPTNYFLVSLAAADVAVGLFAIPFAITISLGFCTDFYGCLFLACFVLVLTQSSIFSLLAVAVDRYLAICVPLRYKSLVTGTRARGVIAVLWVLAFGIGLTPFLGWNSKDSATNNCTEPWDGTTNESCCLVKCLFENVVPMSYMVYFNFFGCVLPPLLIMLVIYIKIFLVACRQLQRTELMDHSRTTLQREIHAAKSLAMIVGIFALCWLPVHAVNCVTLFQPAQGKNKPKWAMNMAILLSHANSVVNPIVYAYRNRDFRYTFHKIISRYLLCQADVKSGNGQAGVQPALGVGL

[6] = system: carrageenan-induced edema in rats; parameters: method as in PMID 32629282; settings: 20 mg/kg ip; cited from earlier work
[7] = target: T5, human MAO B (Homo sapiens, UniProt P27338); experiment: Human MAO B inhibition, fluorometric method; type: biochemical; settings: mean of two independent experiments, read-out: % of hMAO B Inhibition at 1 µM
T5 sequence (P27338 1-520): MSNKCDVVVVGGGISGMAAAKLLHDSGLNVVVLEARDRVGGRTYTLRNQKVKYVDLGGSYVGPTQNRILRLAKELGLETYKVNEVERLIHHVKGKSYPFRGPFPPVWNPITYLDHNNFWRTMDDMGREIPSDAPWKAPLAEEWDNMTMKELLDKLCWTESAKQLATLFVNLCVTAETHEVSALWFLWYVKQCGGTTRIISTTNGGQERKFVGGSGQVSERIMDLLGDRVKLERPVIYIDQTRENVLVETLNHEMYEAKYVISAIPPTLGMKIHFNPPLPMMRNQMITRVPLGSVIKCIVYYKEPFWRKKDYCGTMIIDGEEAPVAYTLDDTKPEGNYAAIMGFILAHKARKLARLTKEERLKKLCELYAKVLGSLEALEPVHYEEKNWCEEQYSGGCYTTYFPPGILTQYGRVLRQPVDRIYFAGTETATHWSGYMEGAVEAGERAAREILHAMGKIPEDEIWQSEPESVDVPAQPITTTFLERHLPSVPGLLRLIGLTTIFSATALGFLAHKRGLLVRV
Description: The compounds were tested twice in duplicates at a concentration of 1 μM by fluorometric method as previously described. Paratyramine (200 μM) was used as a substrate for the enzyme. Safinamide (1 μM; reversible) and rasagiline (1 μM; irreversible) were used as reference inhibitors.

[8] = target: T1, human adenosine A3R; experiment: Radioligand binding at human adenosine A3 receptor vs. [3H]PSB-11; settings: for inhibition at 1 µM: CHO cells, read-out: A3R vs. [H³]PSB-11 % Inhibition ± SEM at 1 µM; for Ki: human recombinant receptor in CHO cells, read-out: A3R vs. [H³]PSB-11 Ki ± SEM
Description: (§1) Affinities for adenosine receptors were evaluated in radioligand binding assays as previously described. Human adenosine receptors were stably expressed in CHO cells. The following radioligands were used: [^3H]2-chloro-N^6-cyclopentyladenosine ([^3H]CCPA) for A1R; [^3H]3-(3-hydroxypropyl)-7-methyl-8-(m-methoxystyryl)-1-propargylxanthine ([^3H]MSX-2) for A2AR; [^3H]8-(4-(4-(4-chlorophenyl)piperazine-1-sulfonyl)phenyl)-1-propylxanthine ([^3H]PSB-603) for A2BR; [^3H]phenyl-8-ethyl-4-methyl-(8R)-4,5,7,8-tetrahydro-1H-imidazo [2,1-i]purine-5-one ([^3H]PSB-11) for A3R. Initially, compounds were tested at a concentration of 1 µM. […] At least three independent experiments were performed. Data were analyzed using GraphPad PRISM version 5.0 or higher (Graph Pad, San Diego, CA, USA). Ki were calculated using the Cheng–Prusoff equation.

[9] = target: T3, human adenosine A1R; experiment: Radioligand binding at human adenosine A1 receptor vs. [3H]CCPA; settings: for inhibition at 1 µM: CHO cells, read-out: A1R vs. [³H]CCPA % Inhibition ± SEM at 1 µM; for Ki: human recombinant receptor in CHO cells, read-out: A1R vs. [³H]CCPA Ki ± SEM
Description: as §1

[10] = target: T2, human adenosine A2AR; experiment: Radioligand binding at human adenosine A2A receptor vs. [3H]MSX-2; settings: human recombinant receptor in CHO cells; read-out: A2AR vs. [³H]MSX-2 Ki ± SEM
Description: as §1

[11] = target: T4, human adenosine A2BR; experiment: Radioligand binding at human adenosine A2B receptor vs. [3H]PSB-603; settings: for Ki: human recombinant receptor in CHO cells, read-out: A2BR vs. [³H]PSB-603 Ki ± SEM; for inhibition at 1 µM: CHO cells, read-out: A2BR vs. [³H]PSB-603 % Inhibition ± SEM at 1 µM
Description: as §1

[12] = system: carrageenan-induced edema in mice; parameters: method as in PMID 25735490; settings: 100 mg/kg ip, cited from earlier work
[13] = PAMPA blood brain barrier permeability; type: in vitro ADME
Description: The ability of compounds, especially those intended to act in the CNS, to penetrate the blood-brain barrier (BBB) is an important property to consider in the initial stages of drug candidate screening. The PAMPA assay is a commonly used test to assess the passive permeation of the BBB [17]. In our study, caffeine was used as a highly permeable compound. […] After 5 h of incubation at room temperature, the results were analyzed by LC-MS, and the permeability coefficients (Pe) were calculated.
For permeability evaluation, a PAMPA Gentest™ pre-coated […] system, provided by Corning (Tewksbury, MA, USA), was used. The precise procedure was previously described. The permeability coefficient Pe was calculated based on the given equations. Concentrations of the tested compounds in the apical and basolateral wells were determined by LC/MS analysis using an internal standard.

[14] = parameters: method as in PMID 30254599; settings: LPD and ibotenate models; cited from earlier work
[15] = parameters: method as in PMID 21235574; settings: animal studies; cited from earlier work
[16] = selectivity towards other adenosine receptors

T2 sequence (P29274 whole entry): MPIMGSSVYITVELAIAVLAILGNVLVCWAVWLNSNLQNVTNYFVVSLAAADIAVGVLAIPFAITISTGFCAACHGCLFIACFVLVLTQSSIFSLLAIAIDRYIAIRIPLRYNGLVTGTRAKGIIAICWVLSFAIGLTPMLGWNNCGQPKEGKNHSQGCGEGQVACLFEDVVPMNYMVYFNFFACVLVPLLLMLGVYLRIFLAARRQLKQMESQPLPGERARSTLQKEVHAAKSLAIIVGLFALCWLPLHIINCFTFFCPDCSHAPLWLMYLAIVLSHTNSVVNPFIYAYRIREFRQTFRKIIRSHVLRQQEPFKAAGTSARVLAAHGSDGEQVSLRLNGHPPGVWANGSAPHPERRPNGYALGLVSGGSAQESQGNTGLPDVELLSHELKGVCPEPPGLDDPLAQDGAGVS

SMILES	inhibition at 1 µM [7]	inhibition at 1 µM [8]	Ki [8]	inhibition at 1 µM [9]	Ki [9]	melting point	Ki [10]	Ki [11]	inhibition at 1 µM [11]	further results
CCn1c(=O)c2c(nc(NCc3ccccc3Cl)n2C)n(C)c1=O [compound 2]										A3R % Inhibition ± SEM at 1 µM ([1]; 1 µM): 14 ± 1%; Ki ([1]; human): > 1000 nM; Ki ([2]; read-out: A2AR Ki): 71 ± 6 nM; Ki [3]: > 1000 nM; A1R % Inhibition ± SEM at 1 µM ([4]; 1 µM): 22 ± 1%; Ki ([4]; read-out: A1R Ki): > 1000 nM; A2BR % Inhibition ± SEM at 1 µM ([5]; 1 µM): 44 ± 10%; Ki ([5]; human): > 1000 nM
CCn1c(=O)c2c(nc(NCc3cccc(OC)c3F)n2C)n(C)c1=O [compound 1]										Ki ([2]; read-out: A2AR Ki): 69 nM; inhibition of edema, 2nd hour [6]: 44%; inhibition of edema, 3rd hour [6]: 53%; Ki [3, 16]: > 1000 nM; Ki ([4]; read-out: hA1R Ki): > 1000 nM
CCCn1c(=O)c2c(nc(NCc3ccccc3Cl)n2C)n(C)c1=O [compound 5, 8-((2-Chlorobenzyl)amino)-3,7-dimethyl-1-propyl-3,7-dihydro-1H-purine-2,6-dione]	8%	4%	> 1000 nM	26%	> 1000 nM	190 to 191 °C	302 ± 34 nM	832 ± 133 nM		
Cn1c(=O)c2c(nc3n2CCCN3CCc2ccc(O)cc2)n(C)c1=O [KD-114]										reduction of edema volume ([12]; 1st, 2nd and 3rd hour): > 90%; edema at the first hour with the tested compound ([12]; control 64%): 2%; Ki ([2]; read-out: hA2AR Ki): 230 nM; Ki [3, 16]: > 1000 nM; Ki ([4]; read-out: hA1R Ki): > 25000 nM
C#CCn1c(=O)c2c(nc(NCc3cccc(Cl)c3)n2C)n(C)c1=O [compound 23, 8-((3-Chlorobenzyl)amino)-3,7-dimethyl-1-(prop-2-yn-1-yl)-3,7-dihydro-1H-purine-2,6-dione]	8%	14%	> 1000 nM		334 ± 122 nM	234 to 236 °C	126 ± 15 nM	> 1000 nM	26%	
CCCn1c(=O)c2c(nc(NCc3ccc(OC)c(OC)c3)n2C)n(C)c1=O [compound 18, 8-((3,4-dimethoxybenzyl)amino)-3,7-dimethyl-1-propyl-3,7-dihydro-1H-purine-2,6-dione]	2%	-5%	> 1000 nM	7%	> 1000 nM	200 to 201 °C	773 ± 127 nM	> 1000 nM	17%	
Cn1c(=O)c2c(ncn2C)n(C)c1=O [Caffeine, reference compound]										Drug Retention [13]: 29.46%; Papp at 5 h, 100 μM ([13]; 100 μM in PBS, 5 h, room temperature, triplicate, read-out: Pe ± SD): 6.57 ± 1.57 ×10⁻⁶ cm/s; Papp at 5 h, 100 μM ([13]; read-out: Permeable): ≥ 1.5 ×10⁻⁶ cm/s
Nc1nc2c(cnn2CCc2ccccc2)c2nc(-c3ccco3)nn12 [SCH-58261]										effect on pro-inflammatory factors (IL-1ß, IL-6, iNOS, TNF alpha) (in words) [14]: caused a decrease in the above-mentioned cytokines; effect in LPS-induced inflammation model (in words) [15]: beneficial effects
CCCn1c(=O)c2c(nc(NCc3ccccc3Br)n2C)n(C)c1=O [compound 12, 8-((2-Bromobenzyl)amino)-3,7-dimethyl-1-propyl-3,7-dihydro-1H-purine-2,6-dione]	7%	8%	> 1000 nM	30%	> 1000 nM	206 to 207 °C	361 ± 82 nM	> 1000 nM	33%	
CCCn1c(=O)c2c(nc(NCc3c(F)cccc3Cl)n2C)n(C)c1=O [compound 14, 8-((2-Chloro-6-fluorobenzyl)amino)-3,7-dimethyl-1-propyl-3,7-dihydro-1H-purine-2,6-dione]	9%	18%	> 1000 nM	29%	> 1000 nM	241 to 243 °C	124 ± 26 nM	687 ± 147 nM		
